# Test results from PMC6156125, “Chemistry and Hypoglycemic Activity of GPR119 Agonist ZB-16” (Frontiers in Endocrinology, 2018).
# Experiments:
# [1] = system: rats with streptozotocin-nicotinamide (STZ-NA) induced T2D; experiment: Hypoglycemic activity after continuous (28 days) oral administration in T2D rat model, OGTT; assay type: in vivo
# Procedure: Procedures were performed in 40 female Wistar rats weighing 250–280 g. Streptozotocin-nicotinamide-induced rat model of T2D was used ([24], [25]). Briefly, streptozotocin (Sigma, St. Louis, MO, USA) was administered i.p. to overnight fasted rats (65 mg/kg in 100 mmol/l citrate buffer, Ph 4.5). Nicotinamide (Sigma, St. Louis, MO, USA) (230 mg/kg) dissolved in saline was administered i.p. 15 min before streptozotocin. STZ-NA T2D had been confirmed 72 h after in rats with blood glucose levels in a range 9–14 mmol/l measured in fasting (6 h) conditions. […] Following the continuous oral administration of sitagliptin (10 mg/kg), ZB-16 (1 mg/kg) or saline during 28 days STZ-NA T2D confirmation the fasting blood glucose levels were measured, and oral glucose tolerance test (OGTT) was performed. For OGTT rats received an oral dose of […] glucose dissolved in saline; blood glucose levels were monitored every 30 min for 2 h after glucose administration. Sitagliptin dose was chosen in accordance with published data ([26]).
# hERG potassium channels = target: T1, hERG potassium channels (Homo sapiens, UniProt Q12809); experiment: Cardiac toxicity, Predictor hERG fluorescence polarization binding
# T1 construct: purchased Invitrogen Corporation, Carlsbad, CA, USA
# T1 sequence (Q12809 whole entry): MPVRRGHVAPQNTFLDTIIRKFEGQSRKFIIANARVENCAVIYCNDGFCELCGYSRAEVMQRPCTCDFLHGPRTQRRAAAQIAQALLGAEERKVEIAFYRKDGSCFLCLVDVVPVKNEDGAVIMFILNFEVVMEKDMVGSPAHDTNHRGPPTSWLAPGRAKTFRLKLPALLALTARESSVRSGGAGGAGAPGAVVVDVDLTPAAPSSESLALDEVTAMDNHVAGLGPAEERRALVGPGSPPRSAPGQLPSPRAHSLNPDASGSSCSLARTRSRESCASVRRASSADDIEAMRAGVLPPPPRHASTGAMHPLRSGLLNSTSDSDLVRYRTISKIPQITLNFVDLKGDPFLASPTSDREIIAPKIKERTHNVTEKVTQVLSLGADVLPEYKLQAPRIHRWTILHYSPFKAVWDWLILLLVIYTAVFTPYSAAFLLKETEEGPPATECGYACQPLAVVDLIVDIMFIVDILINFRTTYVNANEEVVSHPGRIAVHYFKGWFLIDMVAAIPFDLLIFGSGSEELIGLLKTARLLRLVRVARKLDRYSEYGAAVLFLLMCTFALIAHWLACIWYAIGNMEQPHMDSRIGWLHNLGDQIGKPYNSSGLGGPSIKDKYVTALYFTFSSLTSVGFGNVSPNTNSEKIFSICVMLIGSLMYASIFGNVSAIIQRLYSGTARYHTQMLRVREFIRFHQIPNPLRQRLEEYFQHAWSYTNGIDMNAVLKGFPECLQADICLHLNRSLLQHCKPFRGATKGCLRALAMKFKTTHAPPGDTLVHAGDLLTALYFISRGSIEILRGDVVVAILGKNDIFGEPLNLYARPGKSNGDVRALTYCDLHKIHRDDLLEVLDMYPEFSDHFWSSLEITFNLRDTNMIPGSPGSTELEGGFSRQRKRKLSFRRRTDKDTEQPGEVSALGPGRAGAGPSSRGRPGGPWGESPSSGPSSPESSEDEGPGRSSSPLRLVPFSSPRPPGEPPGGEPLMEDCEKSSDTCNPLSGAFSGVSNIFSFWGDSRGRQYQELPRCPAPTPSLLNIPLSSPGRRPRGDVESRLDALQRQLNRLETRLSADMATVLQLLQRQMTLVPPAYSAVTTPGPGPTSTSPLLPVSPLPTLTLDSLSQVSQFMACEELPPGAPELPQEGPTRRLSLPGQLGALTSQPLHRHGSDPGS
# Procedure: Cardiac toxicity was evaluated by estimating the influence of each substance on hERG potassium channels using the in vitro test system Invitrogen® PredictorTM hERG (Invitrogen Corporation, Carlsbad, CA, USA), containing Predictor hERG membrane preparations, fluorescent tracer stock solution and an assay buffer solution. Experimental procedures were conducted in accordance with the PredictorTM hERG test system's manufacturer instructions. Assays were performed in 384-well microplates. Each well contained 5 μL aliquot of each concentration of test compound, 10 μL of (2X) membrane preparation and 5 μL of working tracer solution. The cumulative reaction volume was 20 μl with 1% of DMSO ([19]). All procedures were performed at 4 replicates for each concentration. The plate was allowed to incubate at room temperature for at least 1 h prior to fluorescence polarization measurements performed with a microplate reader Infinite M1000 PRO (Tecan).
# [2] = Biotransformation in vitro, microsomal stability (rat); assay type: in vitro ADME
# Procedure: The metabolism of the compounds was studied in commercially available microsomal fractions derived from human and rat hepatocytes. Test compounds (0.5 μM) were incubated with microsomal fractions in the presence of NADPH during 30 min in a shaker at 37°C. Reactions were stopped at 0, 5, 10, 15, and 30 min by adding acetonitrile. After proteins precipitation, the remaining amount of the test compound in the supernatant was detected with high performance liquid chromatography tandem-mass spectrometry (HPLC-MS/MS) method using Agilent 1260 liquid chromatograph (Agilent Technologies, Santa Clara, CA, USA) and a QTRAP6500 triple quadrupole mass spectrometer with a TurboIonSpray electro-spraying module (ABSciex, Foster City, CA, USA) ([15]). Incubation was performed twice, with at least 2 measurements for each replicate (n ≥ 3). The half-life (T1/2), the clearance in vitro (CLint) and the remaining amount of substance (% of initial quantity) were calculated.
# CYP2C19 = target: T2, CYP2C19 (Homo sapiens, UniProt P33261); experiment: CYP inhibition, Vivid CYP450 Screening Kit; assay type: in vitro ADME; conditions: 0.0046 to 10 μM tested
# T2 construct: purchased Invitrogen Corporation, Carlsbad, CA, USA
# T2 sequence (P33261 whole entry): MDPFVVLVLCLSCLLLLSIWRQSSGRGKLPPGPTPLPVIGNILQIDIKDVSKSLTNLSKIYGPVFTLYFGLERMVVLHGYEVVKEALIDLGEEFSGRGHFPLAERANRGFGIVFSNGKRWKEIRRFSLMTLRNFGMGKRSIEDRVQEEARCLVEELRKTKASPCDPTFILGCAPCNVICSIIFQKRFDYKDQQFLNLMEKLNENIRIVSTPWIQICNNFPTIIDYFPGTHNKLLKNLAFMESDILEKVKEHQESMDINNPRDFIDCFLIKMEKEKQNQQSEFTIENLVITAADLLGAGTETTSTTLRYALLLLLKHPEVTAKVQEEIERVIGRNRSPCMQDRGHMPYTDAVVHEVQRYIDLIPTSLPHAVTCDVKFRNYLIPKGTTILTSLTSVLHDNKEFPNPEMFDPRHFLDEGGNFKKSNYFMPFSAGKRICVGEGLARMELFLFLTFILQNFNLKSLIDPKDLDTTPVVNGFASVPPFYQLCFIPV
# Procedure: (§1) Briefly, the reaction was initiated by adding NADP^+ and a substrate converted to fluorescent derivates by specific CYP isozyme. The reaction was terminated by adding 1M Tris. The fluorescence of the reaction product, which was proportional to CYP isozyme activity, was measured. […] The minimal signal was defined as the signal obtained without enzyme incubation. The inhibitory action of test compounds on the CYP isozymes was expressed in terms of median inhibitory concentration (IC50).
# CYP1A2 = target: T3, CYP1A2 (Homo sapiens, UniProt P05177); experiment: CYP inhibition, Vivid CYP450 Screening Kit; assay type: in vitro ADME; conditions: 0.0046 to 10 μM tested
# T3 construct: purchased Invitrogen Corporation, Carlsbad, CA, USA
# T3 sequence (P05177 1-516): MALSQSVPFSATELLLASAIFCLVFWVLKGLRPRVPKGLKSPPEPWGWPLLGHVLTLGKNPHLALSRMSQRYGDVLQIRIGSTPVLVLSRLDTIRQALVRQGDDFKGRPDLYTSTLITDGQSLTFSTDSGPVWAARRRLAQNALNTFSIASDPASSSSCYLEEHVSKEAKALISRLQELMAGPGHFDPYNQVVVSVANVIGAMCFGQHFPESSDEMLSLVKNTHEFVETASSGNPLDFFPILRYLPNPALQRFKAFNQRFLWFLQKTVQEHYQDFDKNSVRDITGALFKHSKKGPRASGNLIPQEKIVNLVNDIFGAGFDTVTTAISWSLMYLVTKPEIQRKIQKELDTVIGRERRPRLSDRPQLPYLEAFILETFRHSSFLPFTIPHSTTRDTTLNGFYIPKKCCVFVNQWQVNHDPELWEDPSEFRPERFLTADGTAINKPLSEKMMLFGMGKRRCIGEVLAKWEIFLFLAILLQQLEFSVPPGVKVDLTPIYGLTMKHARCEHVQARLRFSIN
# Procedure: as §1
# HepG2 cell culture = experiment: Cell toxicity in vitro, Cell Titer Glo cell viability (ATP); assay type: cell-based, human; conditions: Figure 3
# Procedure: Cell viability was estimated by the quantity of ATP produced by the HepG2 cell culture, derived from human liver hepatocellular carcinoma. Experiments were performed using a Cell Titer Glo Cell Viability (Promega) test system ([17]). Tubercidin, an inhibitor of various cellular metabolic processes, including RNA processing, nucleic acid synthesis, protein synthesis, and methylation of tRNA through intracellular incorporation into nucleic acids, was used as a positive control ([18]). Median inhibitory concentration (IC50) was used as a quantitative parameter to evaluate cell toxicity. To evaluate inhibition effectiveness (% Inh), the following formula was used: % Inh = [(Lpos − Lexp)/(Lpos − Lneg)] ^* 100%, where Lpos is the positive control (luminescence in cells with no compound); Lneg is the negative control (luminescence in cells containing medium but no cells); and Lexp is the luminescence in cells containing the compound at a certain concentration. IC50 values were calculated using Prism 5 and the criteria for minimization of the experimental points squares deviation from the theoretically calculated curve algorithm.
compound,measurement,setting,value
O=S1(=O)COc2cc(-c3ccc(OCC4CCN(c5ncc(Cl)cn5)CC4)c(F)c3)ccc21 [ZB-16],reduction in the area under the glucose concentration-time curve compared to the control group,"[1]; OGTT on day 28, 1 mg/kg/day oral",22%
same,blood glucose levels lower than in saline group,"[1]; OGTT on day 28, 1 mg/kg/day oral, 30 min after oral glucose (3 mg/kg)",27%
same,mean blood glucose level,"[1]; OGTT on day 28, 1 mg/kg/day oral, two hours after glucose administration",9.1 ± 0.37 mmol/L
same,blood glucose levels,"[1]; daily oral ZB-16 1 mg/kg or sitagliptin 10 mg/kg for 28 days, STZ-NA T2D",reduction
same,Average polarization mP (n = 4),hERG potassium channels; 1 μM,264 mP
same,Unbound hERG %,hERG potassium channels; 1 μM,89%
same,Average polarization mP (n = 4),hERG potassium channels; 10 μM,244 mP
same,Unbound hERG %,hERG potassium channels; 10 μM,77%
same,ER,[2]; Rat microsomal fraction,0.58
same,CLh,"[2]; Rat microsomal fraction, in mL/min/kg (unit assumed)",32.09
same,microsomal CLint at 0.5 μM,[2]; liver microsomal fraction,42.8 µL/min/mg
same,half-life at 0.5 μM,"[2]; liver microsomal fraction, 0.5 μM, NADPH, read-out: t1/2, min",64.8 min
same,IC50,CYP2C19,> 10 µM
same,IC50,CYP1A2,> 10 µM
same,effect on HepG2 cell culture viability,HepG2 cell culture,no effect
